In US8551984B2, “Aminopyrimidines as SYK inhibitors” (Merck Sharp & Dohme Corp., priority 2009, dated 2013):

Molecular target: rhSYK (Homo sapiens, UniProt P43405)
Conditions: read-out: rhSYK Activity; class symbol; where two forms are listed, one symbol per form

SMILES	IC50 [nM]
Cc1cc(Nc2nccc(C(F)(F)F)n2)cc(-c2cnc(C(C)(O)CO)s2)c1 (stereo not drawn) [Ex 5-5]	< 100
Cc1cc(Nc2nccc(C(F)(F)F)n2)cc(-c2cnc(C(C)(O)CO)s2)c1 (stereo not drawn) [Ex 5-6]	< 100
Cc1cc(Nc2nccc(C(F)(F)F)n2)cc(-c2cnc(C(C)(O)CO)s2)c1 (stereo not drawn) [Ex 5-7]	< 100
Cc1cc(Nc2ncc(Cl)cn2)cc(-c2cnc(C(C)(O)CO)s2)c1 (stereo not drawn) [Ex 5-11]	100 to 1000
COc1ccc(Nc2nccc(C(F)(F)F)n2)cc1-c1cnc(C2(O)CCC2)s1 [Example 1-1]	< 100

More lines, now with the values ahead:

IC50 [nM]	SMILES
< 100	Cc1cc(Nc2ncc(F)c(C)n2)cc(-c2cnc(C(C)(O)CO)s2)c1 (stereo not drawn) [Ex 5-8]
< 100	Cc1cc(Nc2ncc(F)c(C)n2)cc(-c2cnc(C(C)(O)CO)s2)c1 (stereo not drawn) [Ex 5-9]
< 100	Cc1cc(Nc2ncc(F)c(C)n2)cc(-c2cnc(C(C)(O)CO)s2)c1 (stereo not drawn) [Ex 5-10]
< 100	Cc1cc(Nc2ncc(Cl)cn2)cc(-c2cnc(C(C)(O)CO)s2)c1 (stereo not drawn) [Ex 5-12]
100 to 1000	Cc1cc(Nc2ncc(Cl)cn2)cc(-c2cnc(C(C)(O)CO)s2)c1 (stereo not drawn) [Ex 5-13]
< 100	Cc1cc(Nc2ncc(F)c(C3CC3)n2)cc(-c2cnc(C(C)(O)CO)s2)c1 (stereo not drawn) [Ex 5-16]
< 100	Cc1cc(Nc2ncc(F)c(C3CC3)n2)cc(-c2cnc(C(C)(O)CO)s2)c1 (stereo not drawn) [Ex 5-17]
< 100	Cc1cc(Nc2ncc(F)c(C3CC3)n2)cc(-c2cnc(C(C)(O)CO)s2)c1 (stereo not drawn) [Ex 5-18]

Same assay, conditions: read-out: rhSYK activity; class symbol given

IC50 [nM]	SMILES
< 100	Cc1cc(Nc2nccc(C(F)(F)F)n2)cc(-c2cnc([C@]3(O)CC[C@@](C)(O)CC3)s2)c1 [9(2), cis-1-methyl-4-[5-(3-methyl-5-{[4-(trifluoromethyl)pyrimidin-2-yl]amino}phenyl)-1,3-thiazol-2-yl]cyclohexane-1,4-diol]
< 100	Cc1cc(Nc2nccc(C(F)(F)F)n2)cc(-c2cnc([C@]3(O)CC[C@@H](C(=O)O)CC3)s2)c1 [33(1)-K, Potassium cis-4-hydroxy-4-[5-(3-methyl-5-{[4-(trifluoromethyl)pyrimidin-2-yl]amino}phenyl)-1,3-thiazol-2-yl]cyclohexanecarboxylate]
< 100	Cc1cc(Nc2nccc(C(F)(F)F)n2)cc(-c2cnc(C3(O)CCC(C(=O)O)CC3)s2)c1 (stereo not drawn) [33(1)-NA, Sodium cis-4-hydroxy-4-[5-(3-methyl-5-{[4-(trifluoromethyl)pyrimidin-2-yl]amino}phenyl)-1,3-thiazol-2-yl]cyclohexanecarboxylate]
< 100	Cc1cc(Nc2nccc(C(F)(F)F)n2)cc(-c2cnc([C@]3(O)CC[C@H](C(=O)O)CC3)s2)c1 [33(2)-K, Potassium trans-4-hydroxy-4-[5-(3-methyl-5-{[4-(trifluoromethyl)pyrimidin-2-yl]amino}phenyl)-1,3-thiazol-2-yl]cyclohexanecarboxylate]
< 100	Cc1cc(Nc2nccc(C(F)(F)F)n2)cc(-c2cnc(C3(O)CCC(C#N)CC3)s2)c1 (stereo not drawn) [37(1), cis-4-hydroxy-4-[5-(3-methyl-5-{[4-(trifluoromethyl)pyrimidin-2-yl]amino}phenyl)-1,3-thiazol-2-yl]cyclohexanecarbonitrile]
< 100	Cc1cc(Nc2nccc(C(F)(F)F)n2)cc(-c2cnc(C3(O)CCC(C#N)CC3)s2)c1 (stereo not drawn) [37(2), trans-4-hydroxy-4-[5-(3-methyl-5-{[4-(trifluoromethyl)pyrimidin-2-yl]amino}phenyl)-1,3-thiazol-2-yl]cyclohexanecarbonitrile]
< 100	Cc1cc(Nc2nccc(C(F)(F)F)n2)cc(-c2cnc([C@]3(O)CC[C@H](C(N)=O)CC3)s2)c1 [38(1), trans-4-hydroxy-4-[5-(3-methyl-5-{[4-(trifluoromethyl)pyrimidin-2-yl]amino}phenyl)-1,3-thiazol-2-yl]cyclohexanecarboxamide]
< 100	Cc1cc(Nc2nccc(C(F)(F)F)n2)cc(-c2cnc(C3(O)CCC(C(N)=O)CC3)s2)c1 (stereo not drawn) [38(2), cis-4-hydroxy-4-[5-(3-methyl-5-{[4-(trifluoromethyl)pyrimidin-2-yl]amino}phenyl)-1,3-thiazol-2-yl]cyclohexanecarboxamide]
